“And” between values parts separate entries of the source, which are not always exact repeats. Identical values can stand only once.
How the values were obtained:
ITK [1] = molecular target: T1, ITK (Homo sapiens, UniProt Q08881); experiment: ITK degradation in DERL-2 cells (immunoblot); format: cell-based; set-up: endogenous in cells; host or cells: DERL-2 cells
T1 sequence (Q08881 1-620): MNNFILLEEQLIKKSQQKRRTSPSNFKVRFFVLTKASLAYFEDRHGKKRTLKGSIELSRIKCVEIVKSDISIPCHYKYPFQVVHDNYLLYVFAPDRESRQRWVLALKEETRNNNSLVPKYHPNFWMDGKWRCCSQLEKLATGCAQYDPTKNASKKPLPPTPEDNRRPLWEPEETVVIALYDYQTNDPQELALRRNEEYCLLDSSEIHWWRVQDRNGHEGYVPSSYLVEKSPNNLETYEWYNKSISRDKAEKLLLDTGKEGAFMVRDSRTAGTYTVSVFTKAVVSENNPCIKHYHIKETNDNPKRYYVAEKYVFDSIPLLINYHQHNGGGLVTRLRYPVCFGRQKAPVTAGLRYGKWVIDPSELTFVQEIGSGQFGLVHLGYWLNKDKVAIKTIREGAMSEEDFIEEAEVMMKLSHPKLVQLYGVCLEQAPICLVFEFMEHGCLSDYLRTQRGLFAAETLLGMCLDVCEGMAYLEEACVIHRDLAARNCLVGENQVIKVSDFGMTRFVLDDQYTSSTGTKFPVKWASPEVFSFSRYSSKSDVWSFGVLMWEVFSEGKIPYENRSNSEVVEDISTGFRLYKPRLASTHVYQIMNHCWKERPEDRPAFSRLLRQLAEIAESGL
Protocol: (§1) DERL-2 cells (hepatosplenic T-cell lymphoma) were treated with compound 1 for either 4 hours (FIG. 1A) or 18 hours (FIG. 1B) at the indicated doses. After treatment, DERL-2 cells were lysed in Cell Lysis Buffer (Cell Signaling Technology®) on ice for 30 minutes and lysates were clarified by centrifugation. Immunoblotting for ITK was performed to evaluate changes in protein levels upon ITK degrader treatment. All samples were run with equal total protein content and immunoblotting was performed using antibodies that detect total ITK protein as well as GAPDH as a loading control followed by washing and binding of horseradish peroxidase (HRP)-conjugated secondary antibodies. Blots were developed using SuperSignal™ Pico chemiluminescent substrate (Thermo Scientific).
as §1, with “cells” for “cells (hepatosplenic T-cell lymphoma)”, “compound 1, compound 2 or ITK inhibitor (BMS509744)” for “compound 1”, “for” for “for either 4 hours (FIG. 1A) or”, “(FIG. 2)” for “(FIG. 1B)”, “After 18 hours,” for “After treatment,”

ITK [2] = molecular target: T1, ITK; experiment: ITK degradation in Hut78 cells (immunoblot); format: cell-based; set-up: endogenous in cells; details: 1 μM, 18 hours
Protocol: Hut78 cells (mycosis fungoides and Sezary syndrome) were treated with or without 1 μM of compound 1 for 18 hours. After treatment, Hut78 cells were lysed in Cell Lysis Buffer (Cell Signaling Technology®) on ice for 30 minutes and lysates were clarified by centrifugation. Immunoblotting for ITK was performed as described in Example 7 to evaluate changes in protein levels upon ITK degrader treatment.

ITK [3] = molecular target: T1, ITK; experiment: ITK degradation in DERL-2 cells with NAE inhibitor MLN4924 co-treatment; format: cell-based; set-up: endogenous in cells; host or cells: DERL-2 cells; details: 18 hours, combination with NAE inhibitor MLN4924
Protocol: DERL-2 cells were treated with compound 1, the NEDD8-activating enzyme (NAE) inhibitor MLN4924, or in combination for 18 hours (FIG. 3) at […]. After 18 hours, DERL-2 cells were lysed in Cell Lysis Buffer (Cell Signaling Technology®) on ice for 30 minutes and lysates were clarified by centrifugation. Western blot was performed as described in Example 7.

Molt4 cells = experiment: Proteome-wide profiling by TMT quantitative mass spectrometry; format: cell-based; details: 100 nM, 5 hours
Protocol: Proteome-wide profiling experiments were performed according to the reported protocol (B. Jiang et al., Angew. Chem. Int. Ed. Engl. 58:6321-6326 (2019)). Molt4 cells were treated with DMSO vehicle, 100 nM of compound 1 or 100 nM of compound 2 for 5 hours. Protein abundance measurements were made using TMT quantitative mass spectrometry and significant changes were assessed by moderated t-test as implemented in the limma package. The log2 fold change (log2 FC) is shown on the […] and negative log10 p value (−log10 p value) on the […] for three independent biological replicates of each treatment.

ITK [4] = molecular target: T1, ITK; experiment: ITK degradation in DERL-2 cells after pre-treatment with excess BMS509744; format: cell-based; set-up: endogenous in cells; host or cells: DERL-2 cells; details: 10 μM BMS509744 4 hours, then 100 nM compound 1 4 hours
Protocol: DERL-2 cells were pre-treated with or without 10 μM BMS509744 for 4 hours. After 4 hours, 100 nM compound 1 was added and cells were cultured for another 4 hours. After treatment, DERL-2 cells were lysed in Cell Lysis Buffer (Cell Signaling Technology®) on ice for 30 minutes and lysates were clarified by centrifugation. Western blot was performed as described in Example 7 to detect protein expression levels of ITK, IKZF1, IKZF3, and GAPDH.

[5] = Mouse pharmacokinetic (PK) study; format: in vivo
Protocol: Standard PK studies were conducted using male C57BI/6 mice obtained from Scripps Fla. A single 2 mg/kg intravenous (IV) injection of compound 1 solution in 5/90 DMSO/10% Captisol® was evaluated. Plasma concentrations of compound 1 reported at each of the 8 time points (5 min, 15 min, 30 min, 1 h, 2 h, 4 h, 6 h and 8 h post dosing) are the average values from 3 test animals.

DERL-2 cells = experiment: Cell proliferation and cell death (PI, flow cytometry) of DERL-2 cells in culture with IL-2; format: cell-based
Protocol: DERL-2 cells supplemented in culture with IL-2 (FIG. 4A) or without IL-2 (FIG. 4B and FIG. 4C) were treated with compound 1 at the indicated doses. Cells were split at 1:5 ratio with fixed concentration of compound 1 every two days. Cell numbers and cell death were quantified by flow cytometry. Propidium iodide (PI) solution, a marker of cell death, was added to cells 5 minutes before flow cytometry detection. Percent PI-positive is used to quantify cell death.
DERL-2 cells in culture with IL-2 were treated with either 1 μM of compound 1, 1 μM BMS509744 or DMSO. Cells were split at 1:5 ratio and fresh compounds were added every two days. Cell numbers and cell death were quantified by flow cytometry. PI solution was added to cells 5 minutes before flow cytometry detection to indicate cell death.

Hut78 cells = experiment: Cell growth and cell death (PI, flow cytometry) of Hut78 cells; format: cell-based; details: Hut78 cells (independent of IL-2)
ITK [6] = molecular target: T1, ITK; experiment: In vivo ITK degradation in Hut78 xenograft tumors; set-up: endogenous in cells; host or cells: Hut78 cells (in culture; or engrafted subcutaneously in NSG mice and purified from tumours); species or system mouse; details: female NSG mice, engrafted Hut78 cells, 50 mg/kg intraperitoneal, 3 doses every 8 hours, 4 hours after last dose
Protocol: In vivo degradation studies were conducted using female NSG mice. 6 eight-week-old NSG mice were injected subcutaneously with 1*10^7 of Hut78 cells. The injected mice were monitored for tumor formation twice a week until tumor growth reaches an average of 500 mm^3. Mice were then randomized into 3 mice per group, and treated with either vehicle (7.5% DMSO, 20% (2-hydroxypropyl)-β-cyclodextrin [HP-β-CD]) or compound 1 at 50 mg/kg via intraperitoneal injection for 3 doses (every 8 hours×3). Four hours after the last doing, mice were sacrificed to harvest tumors. Tumor tissues were cut into small pieces and dissociated into single cell suspension following the instruction of Tumor Dissociation Kit (Miltenyi Biotec, #130-095-929). Suspension cells were then depleted of mouse cells (Catalog #19849, STEMCELL technology). Purified tumor cells were lysed in Cell Lysis Buffer (Cell Signaling Technology®) on ice for 30 minutes and lysates were clarified by centrifugation. Immunoblotting for ITK was performed as described in Example 7 to evaluate protein level changes.

[7] = mouse, male C57BI/6 mice, single 2 mg/kg IV, plasma
[8] = DERL-2 cells supplemented with IL-2

Structure (SMILES): COc1cc(C)c(Sc2cnc(NC(=O)c3ccc(N4CCN(CCCCCCCNC(=O)COc5cccc6c5C(=O)N(C5CCC(=O)NC5=O)C6=O)CC4)cc3)s2)cc1C(=O)N1CCN(C(C)=O)CC1 (stereo not drawn) [compound 1, N-(5-((5-(4-acetylpiperazine-1-carbonyl)-4-methoxy-2-methylphenyl)thio)thiazol-2-yl)-4-(4-(7-(2-((2-(2,6-dioxopiperidin-3-yl)-1,3-dioxoisoindolin-4-yl)oxy)acetamido)heptyl)piperazin-1-yl)benzamide]
- degradation of ITK protein (immunoblot) (ITK [1]; 4 hours or 18 hours): rapid and pronounced degradation of ITK protein
- concentration at which ITK degradation is evident (ITK [1]; 18 hours): 1 nM
- concentration of maximal ITK degradation (ITK [1]; 18 hours): 1000 nM
- degradation of ITK protein (immunoblot) (ITK [1]; 18 hours): rapid and pronounced degradation of ITK protein
- degradation of ITK protein (immunoblot) (ITK [2]): pronounced degradation of ITK protein
- ITK degradation induced by compound 1 on treatment with MLN4924 (ITK [3]): rescued the degradation
- proteins downregulated (relative protein abundance) (Molt4 cells): downregulated ITK, IKZF1, IKZF3, ZFP91, RNF166, ZNF653 and ZNF692
- ITK degradation induced by compound 1 after pre-treatment with excess BMS509744 (ITK [4]): rescued the degradation
- AUC % Extrap ([5]; male C57BI/6 mice, single 2 mg/kg IV, plasma): 5.14 % Extrap
- in vivo metabolic stability, exposure and clearance rate (overall assessment) ([5]; mouse PK, 2 mg/kg IV): good in vivo metabolic stability, exposure and clearance rate
- AUC(0-t) [5, 7]: 1370 ng·h/mL and 1.34 µM·h
- Cmax [5, 7]: 1710 ng/mL and 1.67 µM
- Tmax [5, 7]: 4.8 min
- half-life [5, 7]: 2.18 h
- AUC(0-inf) ([5]; mouse, male C57BI/6 mice, single 2 mg/kg IV, plasma, read-out: AUCINF—obs (converted)): 1440 ng·h/mL
- clearance ([5]; mouse, male C57BI/6 mice, single 2 mg/kg IV, plasma, read-out: Cl—obs): 25.2 mL/min/kg
- MRT inf ([5]; mouse, male C57BI/6 mice, single 2 mg/kg IV, plasma, read-out: MRTINF—obs): 1.96 h
- Vd ([5]; mouse, male C57BI/6 mice, single 2 mg/kg IV, plasma, read-out: VSS—obs): 2.94 L/kg
- cell death (percent PI-positive) compared with DMSO (DERL-2 cells; [8]): induced cell death
- inhibition of cell proliferation compared with DMSO (DERL-2 cells; [8]): > 10 fold
- cell proliferation and cell death of TCL cells (DERL-2 cells; DERL-2 cells with IL-2, 1 μM): blocked cell proliferation and induced cell death
- cell growth and cell death (Hut78 cells): did not inhibit cell growth or induce cell death
- degradation of ITK protein in vivo (immunoblot of purified tumor cells) (ITK [6]): significant degradation of ITK protein in vivo

Structure (SMILES): COc1cc(C)c(Sc2cnc(NC(=O)c3ccc(N4CCN(CCCCCCCNC(=O)COc5cc6c7c(cccc7c5)C(=O)N(C5CCC(=O)NC5=O)C6=O)CC4)cc3)s2)cc1C(=O)N1CCN(C(C)=O)CC1 (stereo not drawn) [compound 2, N-(5-((5-(4-acetylpiperazine-1-carbonyl)-4-methoxy-2-methylphenyl)thio)thiazol-2-yl)-4-(4-(7-(2-((2-(2,6-dioxopiperidin-3-yl)-1,3-dioxo-2,3-dihydro-1H-benzo[de]isoquinolin-5-yl)oxy)acetamido)heptyl)piperazin-1-yl)benzamide]
- concentration at which ITK degradation is evident (ITK [1]; 18 hours): 100 nM
- concentration of maximal ITK degradation (ITK [1]; 18 hours): 1000 nM
- degradation of ITK protein (immunoblot) (ITK [1]; 18 hours): rapid and pronounced degradation of ITK protein
- proteins downregulated (relative protein abundance) (Molt4 cells): selectively downregulated ITK

From patent US12678508B2, “Compounds for targeted degradation of interleukin-2-inducible T-cell kinase and methods of use” (DANA-FARBER CANCER INSTITUTE, INC., priority 2020, dated 2026)
